pIC50: −log10 of the molar value. Active and inactive are the calls of the source. The calls are words filed in the database; no cut-off is given here.
Key:
[1] = tested on: RAW264.7; assay: Antiinflammatory activity in mouse RAW264.7 cells assessed as inhibition of LPS-induced IL-6 expression preincubated for 12 hrs followed by LPS stimulation and measured after 12 hrs by real time quantitative RT-PCR assay; format: functional, cell-based; conditions: dose 5-10 µM, time 24.0 hrs
[2] = tested on: Mus musculus; assay: Antithrombotic activity in carrageenan induced thrombosis in male BALB/c mouse model assessed as thrombosis rate at 30 mg/kg, IG preadministered with PBS for 7 days followed by carrageenan stimulation on day 7 and measured after 2 days post compound administration relative to control; format: functional; conditions: time 2 day
[3] = tested on: Plasma; assay: Anticoagulant activity in human blood plasma at 75 uM measures upto 20 mins by aPTT reagent based analysis; format: functional, cell-free
[4] = target: Plasminogen (Homo sapiens, UniProt P00747); assay: Inhibition of plasmin (unknown origin) using PyroGlu-Phe-Lys-pNA.HCl as chromogenic substrate incubated for 20 mins followed by substrate addition by spectrophotometric analysis
Chain of Plasminogen (P00747 97-580 limits assumed): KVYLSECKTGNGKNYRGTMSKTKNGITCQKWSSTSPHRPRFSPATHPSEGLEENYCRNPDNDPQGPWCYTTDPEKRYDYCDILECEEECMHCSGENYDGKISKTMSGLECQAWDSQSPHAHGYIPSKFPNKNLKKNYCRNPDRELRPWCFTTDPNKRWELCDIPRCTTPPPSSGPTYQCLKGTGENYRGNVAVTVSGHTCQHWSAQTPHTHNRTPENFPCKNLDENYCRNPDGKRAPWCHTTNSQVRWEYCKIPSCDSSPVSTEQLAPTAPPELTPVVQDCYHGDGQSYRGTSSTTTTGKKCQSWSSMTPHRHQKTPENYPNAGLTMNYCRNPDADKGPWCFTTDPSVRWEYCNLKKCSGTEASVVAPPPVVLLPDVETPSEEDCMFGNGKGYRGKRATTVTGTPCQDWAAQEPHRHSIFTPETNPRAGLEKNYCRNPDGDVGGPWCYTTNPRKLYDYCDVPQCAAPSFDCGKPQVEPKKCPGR
Chain of Plasminogen (P00747 581-810 limits assumed): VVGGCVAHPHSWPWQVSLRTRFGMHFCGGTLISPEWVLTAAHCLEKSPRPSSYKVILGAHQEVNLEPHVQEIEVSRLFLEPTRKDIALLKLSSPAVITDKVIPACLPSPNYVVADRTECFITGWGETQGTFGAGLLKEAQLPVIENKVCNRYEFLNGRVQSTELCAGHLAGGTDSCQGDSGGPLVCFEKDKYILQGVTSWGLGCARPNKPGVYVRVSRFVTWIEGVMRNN

[5] = tested on: RAW264.7; assay: Antiinflammatory activity in mouse RAW264.7 cells assessed as inhibition of LPS-induced IL-6 expression at 10 uM preincubated for 12 hrs followed by LPS stimulation and measured after 12 hrs by real time quantitative RT-PCR assay; format: functional, cell-based; conditions: time 24.0 hrs
[6] = tested on: Mus musculus; assay: Antiinflammatory activity in carrageenan-induced thrombosis in male BALB/c mouse model assessed as reduction in IL-6 level at 20 mg/kg, po by ELISA method; format: functional, organism-based
[7] = Stability of the compound in water at pH 5 to 7 measured after 48 hrs; format: physicochemical; conditions: buffer, pH 5, 48 h
[8] = tested on: RAW264.7; assay: Cytotoxicity against mouse RAW264.7 cells assessed as reduction in cell viability at upto 40 uM by CCK-8 assay; format: toxicity, cell-based; conditions: raw264.7, 40 µM
[9] = target: Coagulation factor X (Homo sapiens, UniProt P00742); assay: Inhibition of FXa (unknown origin) using Z-D-Arg-Gly-Arg-pNA.2HCl as chromogenic substrate incubated for 20 mins followed by substrate addition by spectrophotometric analysis
Chain of Coagulation factor X (P00742 41-179 limits assumed): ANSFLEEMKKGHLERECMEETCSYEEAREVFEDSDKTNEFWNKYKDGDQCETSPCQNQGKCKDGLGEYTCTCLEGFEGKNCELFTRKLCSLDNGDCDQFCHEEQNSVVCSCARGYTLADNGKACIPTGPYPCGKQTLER
Chain of Coagulation factor X (P00742 235-488 limits assumed): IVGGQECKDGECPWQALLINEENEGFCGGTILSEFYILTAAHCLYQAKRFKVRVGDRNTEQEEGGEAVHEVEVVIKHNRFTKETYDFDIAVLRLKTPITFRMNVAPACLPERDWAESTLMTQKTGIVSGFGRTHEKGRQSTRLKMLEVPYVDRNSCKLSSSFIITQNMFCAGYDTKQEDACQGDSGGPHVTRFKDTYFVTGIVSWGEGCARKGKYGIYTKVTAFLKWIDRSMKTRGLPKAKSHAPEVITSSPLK

[10] = Selectivity index, ratio of IC50 for plasmin (unknown origin) to IC50 for FXIIa (unknown origin)
[11] = Selectivity index, ratio of IC50 for trypsin (unknown origin) to IC50 for FXIIa (unknown origin)
[12] = target: Plasma kallikrein (Homo sapiens, UniProt P03952); assay: Inhibition of PKal (unknown origin) using H-D-Pro-Phe-Arg-pNA-2HCl as substrate incubated for 20 mins followed by substrate addition by spectrophotometric analysis
Chain of Plasma kallikrein (P03952 20-390 limits assumed): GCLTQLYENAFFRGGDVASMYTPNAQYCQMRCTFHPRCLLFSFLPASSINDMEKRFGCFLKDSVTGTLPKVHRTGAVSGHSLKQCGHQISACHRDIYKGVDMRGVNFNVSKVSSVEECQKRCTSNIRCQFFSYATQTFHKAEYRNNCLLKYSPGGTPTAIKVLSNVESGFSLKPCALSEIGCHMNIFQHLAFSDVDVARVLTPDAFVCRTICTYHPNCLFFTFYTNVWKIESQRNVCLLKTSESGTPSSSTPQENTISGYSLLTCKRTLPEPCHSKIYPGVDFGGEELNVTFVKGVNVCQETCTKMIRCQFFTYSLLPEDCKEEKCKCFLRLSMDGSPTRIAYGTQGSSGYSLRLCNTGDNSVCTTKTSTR
Chain of Plasma kallikrein (P03952 391-638 limits assumed): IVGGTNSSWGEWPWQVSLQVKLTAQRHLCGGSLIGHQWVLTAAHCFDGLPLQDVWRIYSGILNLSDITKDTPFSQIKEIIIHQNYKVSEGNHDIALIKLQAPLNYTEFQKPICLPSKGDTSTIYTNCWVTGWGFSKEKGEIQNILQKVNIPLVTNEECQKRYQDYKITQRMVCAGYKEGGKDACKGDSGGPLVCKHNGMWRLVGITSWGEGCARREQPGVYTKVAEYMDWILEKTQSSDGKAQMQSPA

[13] = tested on: Plasma; assay: Anticoagulant activity in non-activated human plasma at 10 to 25 uM measured after 260 mins; format: functional, cell-free; conditions: dose 10-25 µM
[14] = target: Coagulation factor XI (Homo sapiens, UniProt P03951); assay: Inhibition of FXIa (unknown origin) using p-Glu-Pro-Arg-pNA.HCl as chromogenic substrate incubated for 20 mins followed by substrate addition by spectrophotometric analysis
Chain of Coagulation factor XI (P03951 19-387 limits assumed): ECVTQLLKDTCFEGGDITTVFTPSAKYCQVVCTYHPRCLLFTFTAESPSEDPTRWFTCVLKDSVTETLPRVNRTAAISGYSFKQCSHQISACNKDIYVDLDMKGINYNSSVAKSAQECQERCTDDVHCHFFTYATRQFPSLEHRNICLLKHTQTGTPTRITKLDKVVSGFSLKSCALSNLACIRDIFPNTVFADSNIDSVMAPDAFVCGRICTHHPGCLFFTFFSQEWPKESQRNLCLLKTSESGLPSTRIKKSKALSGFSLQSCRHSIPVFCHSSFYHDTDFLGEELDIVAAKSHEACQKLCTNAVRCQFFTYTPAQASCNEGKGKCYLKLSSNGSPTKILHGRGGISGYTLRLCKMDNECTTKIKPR
Chain of Coagulation factor XI (P03951 388-625 limits assumed): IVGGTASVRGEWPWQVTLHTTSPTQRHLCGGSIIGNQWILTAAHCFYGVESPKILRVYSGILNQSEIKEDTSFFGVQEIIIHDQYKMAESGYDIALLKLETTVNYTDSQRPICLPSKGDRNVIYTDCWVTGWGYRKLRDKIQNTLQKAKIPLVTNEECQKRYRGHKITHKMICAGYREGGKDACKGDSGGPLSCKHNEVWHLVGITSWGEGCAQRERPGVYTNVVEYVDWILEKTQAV

[15] = tested on: RAW264.7; assay: Antiinflammatory activity in mouse RAW264.7 cells assessed as inhibition of LPS-induced IL-1 beta expression at 10 uM preincubated for 12 hrs followed by LPS stimulation and measured after 12 hrs by real time quantitative RT-PCR assay; format: functional, cell-based; conditions: time 24.0 hrs
[16] = tested on: RAW264.7; assay: Antiinflammatory activity in mouse RAW264.7 cells assessed as inhibition of LPS-induced IL-1 beta expression preincubated for 12 hrs followed by LPS stimulation and measured after 12 hrs by real time quantitative RT-PCR assay; format: functional, cell-based; conditions: dose 5-10 µM, time 24.0 hrs
[17] = Selectivity index, ratio of IC50 for PKal (unknown origin) to IC50 for FXIIa (unknown origin)
[18] = target: Tissue-type plasminogen activator (Homo sapiens, UniProt P00750); assay: Inhibition of tPA (unknown origin) using H-D-lle-Pro-Arg-pNA-2HCl as chromogenic substrate incubated for 20 mins followed by substrate addition by spectrophotometric analysis
Chain of Tissue-type plasminogen activator (P00750 whole entry): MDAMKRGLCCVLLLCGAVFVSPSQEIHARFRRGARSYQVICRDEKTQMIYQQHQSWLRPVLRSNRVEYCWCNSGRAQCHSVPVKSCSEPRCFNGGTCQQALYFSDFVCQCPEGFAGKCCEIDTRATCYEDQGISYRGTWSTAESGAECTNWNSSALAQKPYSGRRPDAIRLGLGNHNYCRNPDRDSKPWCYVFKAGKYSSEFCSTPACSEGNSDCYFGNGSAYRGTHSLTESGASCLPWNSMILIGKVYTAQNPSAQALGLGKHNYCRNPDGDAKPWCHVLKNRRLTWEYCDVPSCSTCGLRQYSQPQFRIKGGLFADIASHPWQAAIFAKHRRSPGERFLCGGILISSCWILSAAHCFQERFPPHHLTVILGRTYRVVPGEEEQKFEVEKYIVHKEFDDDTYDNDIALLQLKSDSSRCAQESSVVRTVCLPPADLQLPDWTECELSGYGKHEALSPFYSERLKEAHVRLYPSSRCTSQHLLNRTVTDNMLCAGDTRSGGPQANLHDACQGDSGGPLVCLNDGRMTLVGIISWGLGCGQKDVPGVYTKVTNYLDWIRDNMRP

[19] = Selectivity index, ratio of IC50 for FXa (unknown origin) to IC50 for FXIIa (unknown origin)
[20] = tested on: Mus musculus; assay: Antithrombotic activity in carrageenan induced thrombosis in male BALB/c mouse model assessed as reduction in tail thrombosis administered as IG dose preadministered with PBS for 7 days followed by carrageenan stimulation on day 7 and measured after 2 days post compound administration; format: functional, organism-based; conditions: dose 10-30 mg/kg, time 2.0 day
[21] = tested on: Plasma; assay: Selectivity ratio of anticoagulant activity in non-activated human plasma at 10 to 25 uM measured after 260 mins to anticoagulant activity in non-activated human plasma at 10 to 25 uM measured after 2 mins; format: functional; conditions: dose 10-25 µM, 4.333 h
[22] = target: Trypsin (Homo sapiens, UniProt P07477+P07478+P35030); assay: Inhibition of trypsin (unknown origin) using Bz-lle-Glu(gamma-OR)-Gly-Arg-pNA.HCl as chromogenic substrate incubated for 20 mins followed by substrate addition by spectrophotometric analysis; format: protein assay
[23] = tested on: Mus musculus; assay: Antithrombotic activity in carrageenan induced thrombosis in male BALB/c mouse model assessed as inhibition of tail thrombosis at 20 mg/kg, IG administered for 9 days with carrageenan stimulation on day 7 by H and E staining based analysis; format: functional, organism-based; conditions: time 9.0 day
[24] = tested on: Plasma; assay: Anticoagulant activity in human plasma assessed as prolongation of activated partial thromboplastin time incubated for 2 mins by aPTT reagent based assay; format: functional
[25] = target: Chymotrypsin (Homo sapiens, UniProt Q99895+P17538+P40313+Q6GPI1); assay: Inhibition of Chymotrypsin (unknown origin) using N-Suc-Ala-Ala-Pro-Phe-pNA as chromogenic substrate incubated for 20 mins followed by substrate addition by spectrophotometric analysis; format: protein assay
[26] = tested on: Plasma; assay: Anticoagulant activity in non-activated human plasma assessed as prolongation of activated partial thromboplastin time measured after 260 mins; format: functional; conditions: 4.333 h
[27] = tested on: Plasma; assay: Anticoagulant activity in mouse plasma at 25 uM measures upto 20 mins by aPTT reagent based analysis; format: functional, cell-free
[28] = Stability of the compound in water under acidic condition at pH 3 measured after 48 hrs; format: physicochemical; conditions: buffer, pH 3, 48 h
[29] = tested on: Mus musculus; assay: Antiinflammatory activity in carrageenan-induced thrombosis in male BALB/c mouse model assessed as reduction in IL-1 beta level at 20 mg/kg, po by ELISA method; format: functional, organism-based
[30] = tested on: Plasma; assay: Anticoagulant activity in human plasma assessed as prolongation of activated partial thromboplastin time at 300 uM incubated for 2 mins by aPTT reagent based assay relative to control; format: functional
[31] = target: Prothrombin (Homo sapiens, UniProt P00734); assay: Inhibition of thrombin (unknown origin) using H-D-Phe-Pip-Arg-pNA-2HCl as substrate incubated for 20 mins followed by substrate addition by spectrophotometric analysis
[32] = tested on: Mus musculus; assay: Antithrombotic activity in carrageenan induced thrombosis in male BALB/c mouse model assessed as inhibition of tail thrombosis at 20 to 30 mg/kg, IG preadministered with PBS for 7 days followed by carrageenan stimulation on day 7 and measured after 2 days post compound administration by H and E staining based analysis; format: functional, organism-based; conditions: dose 20-30 mg/kg, time 2.0 day
[33] = tested on: Plasma; assay: Anticoagulant activity in human plasma assessed as prolongation of […] time at 300 uM incubated for 2 mins by PT reagent based assay; format: functional, cell-free
[34] = Selectivity index, ratio of IC50 for tPA (unknown origin) to IC50 for FXIIa (unknown origin)

SMILES | Activity [1] | Activity [2] [%] | Activity [3] | pIC50 [4] | Activity [5] | Activity [6] | Stability [7] | Activity [8] | pIC50 [9] | Ratio IC50 [10] | Ratio IC50 [11] | pIC50 [12] | Activity [13] | pIC50 [14] | Activity [15] | Activity [16] | Ratio IC50 [17] | pIC50 [18] | Ratio IC50 [19] | Activity [20] | other results
CC(C)N1CCN(c2ccc(C(=O)n3nc(-c4ccccn4)nc3N)c3ccccc23)CC1 | Dose-Dependent Effect | ~30 | Active | < 4.60 | Active | Active | Stable | Non-Toxic | < 4.60 | > 670 | > 670 | < 4.60 | Active | < 4.60 | Active | Dose-Dependent Effect | > 670 | < 4.60 | > 670 | Dose-Dependent Effect | Ratio [21]: 2; IC50 [22]: > 25 µM; Activity [23]: Active; EC1.5 [24]: 68 µM; IC50 [25]: > 25 µM; EC1.5 [26]: 14 µM; Activity [27]: Active; Stability [28]: Stable; Activity [29]: Active; Activity [30]: 542%; pIC50 [31]: 4.70; Activity [32]: Active; Activity [33]: inactive; Ratio IC50 [34]: > 670
CC(C)N1CCCN(c2ccc(C(=O)n3nc(-c4ccccn4)nc3N)c3ccccc23)CC1 | Dose-Dependent Effect | ~10 | Active | < 4.60 | Active | Active | Stable | Non-Toxic | < 4.60 | > 1190 | > 1190 | < 4.60 | Active | < 4.60 | Active | Dose-Dependent Effect | > 1190 | < 4.60 | > 1190 | Dose-Dependent Effect | Ratio [21]: 2; IC50 [22]: > 25 µM; Activity [23]: Active; EC1.5 [24]: 37 µM; IC50 [25]: > 25 µM; EC1.5 [26]: 9 µM; Activity [27]: Active; Stability [28]: Stable; Activity [29]: Active; Activity [30]: 905%; pIC50 [31]: 5.15; Activity [32]: Active; Activity [33]: inactive; Ratio IC50 [34]: > 1190
